Consider one compound from paper PMC9144521 (Viruses, 2022).

In one data set the test system is AdV5. Kind of data set: Anti-AdV activity assay (IFA of hexon), secondary screen, AdV5. It is filed as cell-based, Human adenoviruses type 5. The settings on record: Vero cells.
The next data set in a line: in vitro. The settings on record: African green monkey.
In a further data set the test system is AdV3. Kind of data set: Anti-AdV activity assay (IFA of hexon), secondary screen, AdV3. Format: cell-based, Human adenoviruses type 3.
For another data set, the system named is Aurora A/B/C. As to conditions: cited from earlier work.

In the case of `Cc1csc(-c2nnc(Nc3ccc(Oc4ncccc4-c4ccnc(N)n4)cc3)c3ccccc23)c1` [AMG-900], the “inhibition of AdV5 (in words)” value in the data set with AdV5 is listed as “but not AdV5”. Moreover, the EC50 (as a rule, the concentration needed to bring the measured effect to its halfway point) is greater than 5 µM with AdV5 (48 h, IFA of hexon, 0.02 to 5 μM) and 20 nM in the data set on AdV3 (Vero cells, 48 h, IFA of hexon, 0.02 to 5 μM). Moreover, the CC50 at 48 h in the data set “in vitro” was found to be 3.69 µM. Also, in the data set with AdV3 (CC50/EC50, Vero cells), the “Selective Index AdV3” value came out at 226.12. For the same compound, the “inhibition of AdV3 (in words)” value in the data set with AdV3 (Vero cells) is “potently inhibits only AdV3”. In the data set with Aurora A/B/C, the “selectivity for Aurora kinases than p38α, Tyk2, and JNK2” value is greater than 10 fold.
